# According to PubChem BioAssay (NCI):
#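 Briefly, cells in 96-well plates were exposed to five compound concentrations for 48 h, and endpoints were estimated by linear interpolation. GI50 = concentration required for 50% inhibition of growth. TGI denotes the concentration required for complete inhibition of growth.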
# Columns and labels:
# Test in all cases: inhibition of tumour cell growth, NCI panel, 48 h
# HCT-15 colon = system: HCT-15 colon
# SF-268 CNS = system: SF-268 CNS
# HS 578T breast = system: HS 578T breast
# SR leukemia = system: SR leukemia
# U251 CNS = system: U251 CNS
# HOP-62 NSCLC = system: HOP-62 NSCLC
# RXF 393 renal = system: RXF 393 renal
# M14 melanoma = system: M14 melanoma
# UACC-62 melanoma = system: UACC-62 melanoma
# SNB-75 CNS = system: SNB-75 CNS
SMILES,GI50 (HCT-15 colon) [µM],TGI (HCT-15 colon) [µM],GI50 (SF-268 CNS) [µM],TGI (SF-268 CNS) [µM],GI50 (HS 578T breast) [µM],TGI (HS 578T breast) [µM],GI50 (SR leukemia) [µM],TGI (SR leukemia) [µM],GI50 (U251 CNS) [µM],TGI (U251 CNS) [µM],GI50 (HOP-62 NSCLC) [µM],TGI (HOP-62 NSCLC) [µM],GI50 (RXF 393 renal) [µM],TGI (RXF 393 renal) [µM],GI50 (M14 melanoma) [µM],TGI (M14 melanoma) [µM],GI50 (UACC-62 melanoma) [µM],TGI (UACC-62 melanoma) [µM],TGI (SNB-75 CNS) [µM],GI50 (SNB-75 CNS) [µM]
COc1cc2c(cc1C)NC(=O)/C2=C/c1c(C)nc2sc(C)cn12,> 100,> 100,85.3,> 100,49.8,> 100,22.6,> 100,> 100,> 100,> 100,> 100,> 100,> 100,44.2,> 100,38.9,> 100,,
N#Cc1ccccc1/C=N/O,,> 56.3,,> 100,,,,> 100,,> 100,,> 100,,> 100,,> 100,,> 100,> 100,
O=C(/C=C/c1ccc2c(c1)OCO2)c1ccccc(=O)c1O,,> 100,,35.9,,> 100,,> 100,,> 100,,> 100,,,,,,29.2,33.1,
[O-][N+]1=C(c2ccccc2)COc2ccccc21,,> 100,,> 100,,,,> 100,,> 100,,> 100,,> 100,,> 100,,> 100,> 100,
Cc1ccc(S(=O)(=O)NC(=O)Nc2nc(Cl)cc(Cl)n2)cc1,,,,> 100,,,,,,> 100,,> 100,,> 100,,> 100,,> 100,> 100,
C#CCOc1c(OC)cc(C(=O)/C(C)=C/c2cccc(N=[N+]=[N-])c2)cc1OC,0.0499,> 100,0.637,> 100,0.25,> 100,,,0.0793,> 100,0.214,> 100,0.25,> 100,0.178,> 100,0.253,> 100,,
C/C(CC(=O)Nc1ccc([N+](=O)[O-])cc1)=N/N=C(N)N,,,,> 100,,,,,,> 100,,> 100,,> 100,,> 100,,> 100,> 100,
COc1ccc2oc(-c3ccc(Cl)cc3)c(N3CCN(C)CC3)c2c1,1.62,3.24,2.36,5.61,1.71,3.86,2.27,8.12,1.64,3.14,1.82,3.86,,,1.95,4.26,1.73,3.44,4.01,1.48
COC(=O)/C(Br)=C/c1c[nH]c2ccc(Br)cc12,6.26,21.4,15.6,60.3,1.71,17.1,26.9,> 100,10.2,28.6,17.6,51.9,,,11.4,25.8,12.4,26.7,33,12.2
COC(=O)c1cc(O)ccc1NC(=O)c1ccc(O)cc1,,> 100,,> 100,,,,> 100,,> 100,,> 100,,,,> 100,,> 100,> 100,
Cc1cc2c(=O)cc(-c3ccc(C(=O)O)cc3)oc2c(C(=O)O)c1C,,> 100,,,,,,> 100,,> 100,,> 100,,,,> 100,,> 100,> 100,
O=C1CC23CC(=O)CC2(C1)c1ccccc1C3=O (configuration not stated),,,,> 100,,,,,,> 100,,> 100,,> 100,,> 100,,> 100,> 100,
O=C(CCc1cc(-c2ccco2)n(-c2ccc([N+](=O)[O-])cc2[N+](=O)[O-])n1)Nc1ccccc1,,> 100,,> 100,,,,> 100,,> 100,,> 100,,> 100,,> 100,,> 100,> 100,
C=C1CCC2C(C)(CO)C(O)CCC2(C)C1CC(O)C1=CCOC1=O (configuration not stated),,> 100,,> 100,,,,65.9,,50.7,,> 100,,,,> 100,,> 100,> 100,
COc1cc2c(/C=C3/C(=O)Nc4c3ccc3ccccc43)c(Cl)[nH]c2cc1C,0.0427,0.143,0.0218,> 14.6,0.289,,< 0.005,< 0.005,0.0559,9.94,0.0144,4.08,0.0999,33.4,0.0119,0.032,0.0119,> 19.8,,
NNc1nc(-c2ccccn2)nc2sc3c(c12)CCCCCC3,1.12,> 100,7.25,> 100,11,> 100,,,4.5,49.6,8.57,> 100,6.8,43,5.46,46.8,5.96,48.8,95.9,12.6
COC(=O)/C(Cl)=C1/CC1COCc1ccccc1 (configuration not stated),,35.8,,> 100,,,,,,,,> 100,,37.8,,31.2,,66.8,> 100,
NC(CCCNCc1ccccc1O)C(=O)O (configuration not stated),,> 100,,> 100,,,,,,,,> 100,,,,> 100,,> 100,> 100,
O=C(O)c1cn(C2CC2)c2cc(N3CCN(C(=O)Nc4nc(-c5ccc(Cl)cc5)cs4)CC3)c(F)cc2c1=O,1.71,> 100,0.828,> 100,1.91,66.1,,,1.38,16.1,3,96.1,3.37,54.6,2.86,> 100,2.4,37.9,20.5,2.25

SMILES,GI50 (HCT-15 colon) [µM],TGI (HCT-15 colon) [µM],GI50 (SF-268 CNS) [µM],TGI (SF-268 CNS) [µM],GI50 (HS 578T breast) [µM],TGI (HS 578T breast) [µM],GI50 (SR leukemia) [µM],TGI (SR leukemia) [µM],GI50 (U251 CNS) [µM],TGI (U251 CNS) [µM],GI50 (HOP-62 NSCLC) [µM],TGI (HOP-62 NSCLC) [µM],GI50 (RXF 393 renal) [µM],TGI (RXF 393 renal) [µM],GI50 (M14 melanoma) [µM],TGI (M14 melanoma) [µM],GI50 (UACC-62 melanoma) [µM],TGI (UACC-62 melanoma) [µM],TGI (SNB-75 CNS) [µM],GI50 (SNB-75 CNS) [µM]
CCOC(=O)c1c2c(n3cccc(F)c13)C(=O)c1ncccc1C2=O,0.0247,12.2,0.0963,28.2,0.0362,25.6,,,0.0411,1.39,0.0494,5.17,0.412,4.1,0.049,1.29,0.222,1.28,64.9,1.72
O=[N+]([O-])c1ccc(C2N3CCCCC3[C@@H]3c4[nH]c5ccccc5c4CCN23)cc1 (some centres not stated),,59.1,,43,,,,> 100,,58.1,,47.9,,18.9,,38.9,,18.6,3.29,
C/C(CN1C(=O)c2ccccc2C1=O)=N\NS(C)(=O)=O,,> 100,,> 100,,,,,,> 100,,> 100,,> 100,,> 100,,> 100,> 100,
Cc1ccc(C2CC(c3cccc(Nc4ccncc4)c3)=NN2c2ccc(Cl)cc2)cc1 (configuration not stated),1.83,3.43,,,,,1.52,3.52,1.85,3.64,,,1.59,2.97,1.73,3.39,1.72,3.14,2.87,1.36
O=CN/C=C/c1ccccc1O,,> 100,,> 100,,,,> 100,,> 100,,> 100,,> 100,,> 100,,> 100,> 100,
COc1ccc2c(c1)c(=O)oc1cc(OC/C(=N\O)c3ccc(F)cc3)ccc12,20.5,61.2,24.9,> 100,27,75.6,,,20.2,48.1,18.9,41.8,21.8,58.6,15.7,30.7,15.1,31.2,47.9,18.5
O=C(Cc1nc2ccccc2s1)NC12CC3CC(CC(C3)C1)C2,,> 100,,> 100,,,,> 100,,> 100,,> 100,,,,> 100,,> 100,> 100,
O=C(Nc1cc(Cl)cc(Cl)c1)c1ccc(NC2=C(Cl)C(=O)N(Cc3ccccc3)C2=O)cc1,4.68,19.7,2.55,7.46,1.99,5.49,1.51,4.81,3.04,12.8,4.21,17.8,,,9.37,24.2,4.13,16.7,74.5,35.4
O=C(CN/C=C\C(=O)c1cc(Cl)ccc1Cl)c1ccccc1,18.3,37.6,24.8,83.4,25.7,61.3,> 100,> 100,33.1,99.6,34.5,> 100,22.9,67.5,24,59.6,20.7,52,,
CCOCC[P+](c1ccccc1)(c1ccccc1)c1ccccc1,73.8,> 100,27.3,> 100,21.7,99.5,12.1,> 100,18.1,92.5,29.7,> 100,,,26.5,> 100,,,53.4,10.8
COC(=O)[C@]1(C)CCC[C@]2(C)C3CC4OOC3(C=C4C(C)C)CCC21 (some centres not stated),,30.1,,30.1,,,,26.6,,37.1,,61.5,,,,30.4,,32.3,,
Cc1cc(Cl)ccc1Nc1nc(C(F)(F)F)ccc1C(=O)N/N=C/c1ccc(F)cc1,0.621,12.4,1.14,5.64,2.23,11.7,0.863,3.62,1.52,10.6,1.68,6.65,,,1.84,9.64,1.79,3.82,9.45,1.55
CC(C)(C)C1CCN(C(=O)c2ccccc2)CC1,,> 100,,,,,,> 100,,> 100,,> 100,,> 100,,> 100,,> 100,> 100,
C#Cc1ccc(-n2c(/C=C/c3ccc4ccccc4n3)nc3ncccc3c2=O)cc1,,,0.488,2.33,,,,,0.419,1.59,0.85,2.36,0.269,0.792,,,0.394,1.75,1.45,0.389
O=c1[nH]c(C2CCCCC2)nc2cc(Cl)ccc12,,> 100,,> 100,,,,> 100,,> 100,,,,> 100,,,,> 100,> 100,
COc1cc2c3c(n(CCCN4CCOCC4)c(=O)c2cc1OC)-c1cc2c(cc1C3=O)OCO2,17.4,> 100,0.954,> 100,71.3,> 100,,,3.56,> 91.6,1.86,55.7,,> 66.6,0.9,22.2,0.193,2.29,> 100,8.29
Cc1ccccc1C(C#N)/C(=N/NC(=O)C(=O)NN)C(=O)Nc1cccc(C(F)(F)F)c1 (configuration not stated),,> 100,,> 100,,,,> 100,,> 100,,> 100,,,,> 100,,> 100,> 100,
COC(=O)C1CCc2nnc(-c3cccnc3)n21 (configuration not stated),,> 100,,> 100,,,,> 100,,> 100,,> 100,,> 100,,> 100,,> 100,> 100,
